Laboratory results taken from patent US11351154B2, “Molecular genetic approach to treatment and diagnosis of alcohol and drug dependence” (University of Virginia Patent Foundation, priority 2011, dated 2022).

Key:
[1] = tested on: individuals in alcohol trials; conditions: naltrexone dose of 50 mg/day; cited from earlier work
[2] = tested on: individuals who take topiramate; conditions: cited from earlier work
[3] = tested on: subjects of the ondansetron clinical trial (251 subjects); experiment: CART decision-tree subgroup analysis of ondansetron treatment effect on percentage heavy drinking; format: in vivo, human; conditions: for E(Y|T=1), Y=phd base90-mean(phdweek): T=1(ondansetron)
Excerpt: A decision tree is a structure that can be used to divide up a large collection of records into successively smaller sets of records by applying a sequence of simple decision rules. One advantage of decision tree is that the results can be easily interpreted. CART is a popular decision tree algorithm first published in Breiman et al 1984. CART starts by dividing data into 2 sub-groups (child nodes) that are homogeneous with respect to a particular target variable, in our case the target variable is the binary class label Z. By doing exhaustive search over all possible cutoffs for all possible candidate covariates, sub-groups are formed by identifying optimal split point for the optimal candidate covariate. Repeat the process recursively at each child node until one of the stopping criteria is met. In the end, CART prunes tree to smaller optimal size using cross-validation. After the final tree is determined, the class label (treatment) for “new subjects” is given by running them down the tree and identifying which terminal node they belong. The class label of the terminal node is formed by majority vote of cases in this node, that is if the proportion of class 1 in this node p>0.5, then the class label is 1, otherwise is 0. Let t denote the node, which is a region of the covariates space. A Split denoted by s on a numeric variable Xj take the form Xj<xji, where xji is a cut-off selected by trying all values of Xj in the data set as candidate split points. s splits the node t into left and right daughter nodes […]. The impurity function is used as a measure of node homogeneity. To calculate the impact of a split, compute increase in purity (or reduction in impurity) and choose a split that gives maximal value over all possible splits as the best splitter for node t. Gini criterion is the usual splitting criteria chosen by CART for categorical target. […] The full tree would not do the best job when applied to new dataset. The CART identifies candidate sub-trees through a process of repeated pruning. CART relies on a concept called adjusted error rate, AERα(T)=error rate(T)+α node count(T). This is a measure that increases each tree(T)'s misclassification rate on the training set by imposing a complexity penalty based on the number of final nodes in the tree. One can form a sequence of sub-trees of the full tree by varying the penalty value (cost complexity parameter), α and determining the tree that minimizes the adjusted error rate. After deleting the subjects with missing data, 251 subjects were included in the data analysis. Y=phd […]=(phd base90,Onage,[…], . . . , […]). There are total 21 genotypes. T=1(ondansetron) and T=0(placebo). The goal is to find a subgroup defined by X where the treatment effect is significant. After transforming this problem to a classification problem. CART was used to find the best subgroup with decision tree form.

In the case of `Cl.O=C1CC[C@@]2(O)[C@H]3Cc4ccc(O)c5c4[C@@]2(CCN3CC2CC2)[C@H]1O5` [naltrexone, 17-(Cyclopropylmethyl)-4,5a-epoxy-3,14-dihydroxymorphinan-6-one hydrochloride], the “individuals unable to tolerate the dose” value [1] is given as “about 15%”.

For `CC1(C)O[C@@H]2[C@@H](CO[C@@]3(COS(N)(=O)=O)OC(C)(C)O[C@@H]23)O1` [topiramate, 2,3:4,5-Bis-O-(1-methylethylidene)-beta-D-fructopyranose sulfamate], the “cognitive impairment reported, share of individuals” value ([2]; general population) is listed as 2.4% and the “occurrence rate of cognitive impairment” value ([2]; substance abuse field) is listed as “about 18.7%”.

In the case of `Cc1nccn1CC1CCc2c(c3ccccc3n2C)C1=O` (centres unmarked) [OND, 9-methyl-3-[(2-methyl-1H-imidazol-1-yl)methyl]-1,2,3,9-tetrahydrocarbazol-4-one], the “E(Y|T=1), Y=phd base90-mean(phdweek)” value ([3]; overall sample, 251 subjects) is reported as 32.1%, the “overall sample mean difference E(Y|T=1)−E(Y|T=0)” value ([3]; overall sample, ondansetron minus placebo) is reported as 0.2% and the “E(Y|T=1), Y=phd base90-mean(phdweek)” value ([3]; subgroup gen1=I (rs150226=AA or AG), 42 subjects) is reported as 50.9%. The “sample mean difference E(Y|T=1)−E(Y|T=0)” value ([3]; subgroup gen1=I (rs150226=AA or AG), ondansetron minus placebo) was 28.7%, the “E(Y|T=1), Y=phd base90-mean(phdweek)” value ([3]; subgroup gen2: rs1150226=GG, rs1176719=AA or AG, phd base90≥0.8663, 49 subjects) was 37.6% and the “sample mean difference E(Y|T=1)−E(Y|T=0)” value ([3]; subgroup gen2: rs1150226=GG, rs1176719=AA or AG, phd base90≥0.8663, ondansetron minus placebo) was 15.0%. For the same compound, the “E(Y|T=1), Y=phd base90-mean(phdweek)” value ([3]; subgroup gen (gen1 + gen2), 91 subjects) was 43.0% and the “sample mean difference E(Y|T=1)−E(Y|T=0)” value ([3]; subgroup gen (gen1 + gen2), ondansetron minus placebo) was 20.6%.
